Values belong to the compound of their own block, whether it stands above or below them.
System: 317291-083-R-J1-PDC complex spheroid growth
Experiment: Anticancer human tumor 317291-083-R-J1-PDC patient-derived soft tissue sarcoma cell line growth inhibition [Asc]
Conditions: for IC50: curve of first compound; for viability, T/C: stronger effect = lower value
Summary of the method: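 Spheroid model: tumor line + HUVEC + hMSC. Single agents and combinations; top conc. at/near clinical Cmax (10 microM if undetermined), half-log dilutions. DMSO stocks at 800-fold test concentration.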

[1] = second compound 0.00316 µM, first compound 0.00316 µM
[2] = second compound 0.00316 µM, first compound 0.01 µM
[3] = second compound 0.00316 µM, first compound 0.0316 µM
[4] = second compound 0.00316 µM, first compound 0.1 µM
[5] = second compound 0.00316 µM, first compound 0.316 µM
[6] = second compound 0.00316 µM, first compound 1 µM
[7] = second compound 0.01 µM, first compound 0.00316 µM
[8] = second compound 0.01 µM, first compound 0.01 µM
[9] = second compound 0.01 µM, first compound 0.0316 µM
[10] = second compound 0.01 µM, first compound 0.1 µM
[11] = second compound 0.01 µM, first compound 0.316 µM
[12] = second compound 0.01 µM, first compound 1 µM
[13] = second compound 0.0316 µM, first compound 0.00316 µM
[14] = second compound 0.0316 µM, first compound 0.01 µM
[15] = second compound 0.0316 µM, first compound 0.0316 µM
[16] = second compound 0.0316 µM, first compound 0.1 µM
[17] = second compound 0.0316 µM, first compound 0.316 µM
[18] = second compound 0.0316 µM, first compound 1 µM
[19] = second compound 0.1 µM, first compound 0.00316 µM
[20] = second compound 0.1 µM, first compound 0.01 µM
[21] = second compound 0.1 µM, first compound 0.0316 µM
[22] = second compound 0.1 µM, first compound 0.1 µM
[23] = second compound 0.1 µM, first compound 0.316 µM
[24] = second compound 0.1 µM, first compound 1 µM
[25] = second compound 0.316 µM, first compound 0.00316 µM
[26] = second compound 0.316 µM, first compound 0.01 µM
[27] = second compound 0.316 µM, first compound 0.0316 µM
[28] = second compound 0.316 µM, first compound 0.1 µM
[29] = second compound 0.316 µM, first compound 0.316 µM
[30] = second compound 0.316 µM, first compound 1 µM
[31] = second compound 1 µM, first compound 0.00316 µM
[32] = second compound 1 µM, first compound 0.01 µM
[33] = second compound 1 µM, first compound 0.0316 µM
[34] = second compound 1 µM, first compound 0.1 µM
[35] = second compound 1 µM, first compound 0.316 µM
[36] = second compound 1 µM, first compound 1 µM
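Note: compound exposure lasted seven days after spheroids formed for three days.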
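Throughout, for viability, T/C: 100% = DMSO vehicle control wells.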

IC50 (second compound 0.00316 µM): 345 nM | IC50 (second compound 0.01 µM): 320 nM | IC50 (second compound 0.0316 µM): 140 nM | IC50 (second compound 0.1 µM): 71 nM | IC50 (second compound 0.316 µM): 18.1 nM | IC50 (second compound 1 µM): < 3.16 nM
SMILES: CCN1CCN(Cc2ccc(Nc3ncc(F)c(-c4cc(F)c5nc(C)n(C(C)C)c5c4)n3)nc2)CC1 + CNC(C)C(=O)NC1CN(S(=O)(=O)c2cccc(S(=O)(=O)N3CCC4CCC(C(=O)NC(c5ccccc5)c5ccccc5)N4C(=O)C(NC(=O)C(C)NC)C3)c2)CCC2CCC(C(=O)NC(c3ccccc3)c3ccccc3)N2C1=O
viability, T/C [1]: 54.7% | viability, T/C [2]: 58.7% | viability, T/C [3]: 56.8% | viability, T/C [4]: 65% | viability, T/C [5]: 48.9% | viability, T/C [6]: 28% | viability, T/C [7]: 89.1% | viability, T/C [8]: 90% | viability, T/C [9]: 79.2% | viability, T/C [10]: 76% | viability, T/C [11]: 48.8% | viability, T/C [12]: 31.6% | viability, T/C [13]: 80.3% | viability, T/C [14]: 79.6% | viability, T/C [15]: 64.9% | viability, T/C [16]: 58.4% | viability, T/C [17]: 35.7% | viability, T/C [18]: 40.9% | viability, T/C [19]: 60.9% | viability, T/C [20]: 50.2% | viability, T/C [21]: 53.8% | viability, T/C [22]: 45.6% | viability, T/C [23]: 43.5% | viability, T/C [24]: 22.2% | viability, T/C [25]: 58.6% | viability, T/C [26]: 49.4% | viability, T/C [27]: 42.8% | viability, T/C [28]: 48% | viability, T/C [29]: 33.4% | viability, T/C [30]: 22.7% | viability, T/C [31]: 32.9% | viability, T/C [32]: 36.6% | viability, T/C [33]: 36.6% | viability, T/C [34]: 31.4% | viability, T/C [35]: 32.2% | viability, T/C [36]: 19.5%

IC50 (second compound 0.00316 µM): < 0.316 nM | IC50 (second compound 0.01 µM): < 0.316 nM | IC50 (second compound 0.0316 µM): 21.8 nM | IC50 (second compound 0.1 µM): 17.2 nM | IC50 (second compound 0.316 µM): 1.01 nM | IC50 (second compound 1 µM): < 0.316 nM
SMILES: Cn1ncnc1[C@H]1c2n[nH]c(=O)c3cc(F)cc(c23)N[C@@H]1c1ccc(F)cc1 + CNC(C)C(=O)NC1CN(S(=O)(=O)c2cccc(S(=O)(=O)N3CCC4CCC(C(=O)NC(c5ccccc5)c5ccccc5)N4C(=O)C(NC(=O)C(C)NC)C3)c2)CCC2CCC(C(=O)NC(c3ccccc3)c3ccccc3)N2C1=O
viability, T/C (second compound 0.00316 µM, first compound 0.000316 µM): 3.79% | viability, T/C (second compound 0.00316 µM, first compound 0.001 µM): 4.39% | viability, T/C [1]: 4.26% | viability, T/C [2]: 4.44% | viability, T/C [3]: 4.58% | viability, T/C [4]: 4.39% | viability, T/C (second compound 0.01 µM, first compound 0.000316 µM): 45.2% | viability, T/C (second compound 0.01 µM, first compound 0.001 µM): 37.4% | viability, T/C [7]: 46.9% | viability, T/C [8]: 29.3% | viability, T/C [9]: 28.5% | viability, T/C [10]: 34.5% | viability, T/C (second compound 0.0316 µM, first compound 0.000316 µM): 79% | viability, T/C (second compound 0.0316 µM, first compound 0.001 µM): 86% | viability, T/C [13]: 82.5% | viability, T/C [14]: 57% | viability, T/C [15]: 40.3% | viability, T/C [16]: 52.7% | viability, T/C (second compound 0.1 µM, first compound 0.000316 µM): 95.4% | viability, T/C (second compound 0.1 µM, first compound 0.001 µM): 76.5% | viability, T/C [19]: 60.8% | viability, T/C [20]: 56.6% | viability, T/C [21]: 39.3% | viability, T/C [22]: 50.4% | viability, T/C (second compound 0.316 µM, first compound 0.000316 µM): 58.8% | viability, T/C (second compound 0.316 µM, first compound 0.001 µM): 55.7% | viability, T/C [25]: 36.8% | viability, T/C [26]: 41.6% | viability, T/C [27]: 28.9% | viability, T/C [28]: 35.9% | viability, T/C (second compound 1 µM, first compound 0.000316 µM): 34% | viability, T/C (second compound 1 µM, first compound 0.001 µM): 37.4% | viability, T/C [31]: 28.1% | viability, T/C [32]: 30.9% | viability, T/C [33]: 29.2% | viability, T/C [34]: 22.3%

IC50 (second compound 0.00316 µM): < 31.6 nM | IC50 (second compound 0.01 µM): < 31.6 nM | IC50 (second compound 0.0316 µM): 3590 nM | IC50 (second compound 0.1 µM): 743 nM | IC50 (second compound 0.316 µM): 31.6 nM | IC50 (second compound 1 µM): < 31.6 nM
SMILES: O=C(c1cc(Cc2n[nH]c(=O)c3ccccc23)ccc1F)N1CCN(C(=O)C2CC2)CC1 + CNC(C)C(=O)NC1CN(S(=O)(=O)c2cccc(S(=O)(=O)N3CCC4CCC(C(=O)NC(c5ccccc5)c5ccccc5)N4C(=O)C(NC(=O)C(C)NC)C3)c2)CCC2CCC(C(=O)NC(c3ccccc3)c3ccccc3)N2C1=O
viability, T/C [3]: 4.34% | viability, T/C [4]: 4.85% | viability, T/C [5]: 5.04% | viability, T/C [6]: 5.11% | viability, T/C (second compound 0.00316 µM, first compound 3.16 µM): 4.26% | viability, T/C (second compound 0.00316 µM, first compound 10 µM): 4.12% | viability, T/C [9]: 37% | viability, T/C [10]: 43.8% | viability, T/C [11]: 55.6% | viability, T/C [12]: 33.9% | viability, T/C (second compound 0.01 µM, first compound 3.16 µM): 16.4% | viability, T/C (second compound 0.01 µM, first compound 10 µM): 16.1% | viability, T/C [15]: 65.5% | viability, T/C [16]: 67.9% | viability, T/C [17]: 62% | viability, T/C [18]: 58.1% | viability, T/C (second compound 0.0316 µM, first compound 3.16 µM): 55.2% | viability, T/C (second compound 0.0316 µM, first compound 10 µM): 23.9% | viability, T/C [21]: 78.5% | viability, T/C [22]: 71.3% | viability, T/C [23]: 57.7% | viability, T/C [24]: 54.7% | viability, T/C (second compound 0.1 µM, first compound 3.16 µM): 23.4% | viability, T/C (second compound 0.1 µM, first compound 10 µM): 34.9% | viability, T/C [27]: 52% | viability, T/C [28]: 44.4% | viability, T/C [29]: 44.8% | viability, T/C [30]: 50.8% | viability, T/C (second compound 0.316 µM, first compound 3.16 µM): 17.4% | viability, T/C (second compound 0.316 µM, first compound 10 µM): 21.4% | viability, T/C [33]: 34.3% | viability, T/C [34]: 47.7% | viability, T/C [35]: 34.8% | viability, T/C [36]: 27.9% | viability, T/C (second compound 1 µM, first compound 3.16 µM): 13.2% | viability, T/C (second compound 1 µM, first compound 10 µM): 13.8%

IC50 (second compound 0.00316 µM): 203 nM | IC50 (second compound 0.01 µM): 244 nM | IC50 (second compound 0.0316 µM): 258 nM | IC50 (second compound 0.1 µM): 74.4 nM | IC50 (second compound 0.316 µM): 78.1 nM | IC50 (second compound 1 µM): < 3.16 nM
SMILES: O=C(c1ccc(F)c(F)c1Nc1ccc(I)cc1F)N1CC(O)([C@@H]2CCCCN2)C1 + CNC(C)C(=O)NC1CN(S(=O)(=O)c2cccc(S(=O)(=O)N3CCC4CCC(C(=O)NC(c5ccccc5)c5ccccc5)N4C(=O)C(NC(=O)C(C)NC)C3)c2)CCC2CCC(C(=O)NC(c3ccccc3)c3ccccc3)N2C1=O
viability, T/C [1]: 75.5% | viability, T/C [2]: 69.5% | viability, T/C [3]: 63.3% | viability, T/C [4]: 71.5% | viability, T/C [5]: 37.5% | viability, T/C [6]: 13.9% | viability, T/C [7]: 100% | viability, T/C [8]: 73.2% | viability, T/C [9]: 75.2% | viability, T/C [10]: 91.7% | viability, T/C [11]: 39.8% | viability, T/C [12]: 23.4% | viability, T/C [13]: 92% | viability, T/C [14]: 72% | viability, T/C [15]: 73.6% | viability, T/C [16]: 90% | viability, T/C [17]: 43.1% | viability, T/C [18]: 14.7% | viability, T/C [19]: 72.3% | viability, T/C [20]: 83.5% | viability, T/C [21]: 56.3% | viability, T/C [22]: 49.9% | viability, T/C [23]: 19% | viability, T/C [24]: 8.71% | viability, T/C [25]: 60.1% | viability, T/C [26]: 63.7% | viability, T/C [27]: 47.8% | viability, T/C [28]: 47.9% | viability, T/C [29]: 38.6% | viability, T/C [30]: 7.49% | viability, T/C [31]: 37.1% | viability, T/C [32]: 42.3% | viability, T/C [33]: 37.9% | viability, T/C [34]: 33.5% | viability, T/C [35]: 14.8% | viability, T/C [36]: 5.83%

— PubChem BioAssay AID1963427 (Molecular Pharmacology Branch, DTP, NCI, 2024)
